Laboratory results reported in US4558134A, “Certain phenoxy-pyridine-carbonitriles having antiviral activity” (The Dow Chemical Company, priority 1983, dated 1985).
Converted amounts (≈) assume the structure as drawn. Read-outs that look alike come from different tables or passages of the source.

What was measured:
[1] = test system: Coxsackie A21 virus (Cox A21); test: Tissue culture testing, reduction of viral cytopathic effect, Cox A21; type: cell-based; details: HeLa cells, 48 and 72 hours, read-out: Lowest concentration of the compound necessary to cause a 50 percent reduction in cytopathic effect, CoxA21
in vitro = details: human, hela cells
[2] = test system: rhinovirus type 1A (RV-1A); test: Tissue culture testing, reduction of viral cytopathic effect, RV-1A; type: cell-based; details: Enterovirus, read-out: Lowest concentration of the compound necessary to cause a 50 percent reduction in cytopathic effect, RV-1A
rhinovirus type 2 (RV-2) = test: Tissue culture testing, reduction of viral cytopathic effect, RV-2; type: cell-based; details: Enterovirus, read-out: Lowest concentration of the compound necessary to cause a 50 percent reduction in cytopathic effect, RV-2
[3] = test system: rhinovirus type 64 (RV-64); test: Tissue culture testing, reduction of viral cytopathic effect, RV-64; type: cell-based; details: Enterovirus, read-out: Lowest concentration of the compound necessary to cause a 50 percent reduction in cytopathic effect, RV-64
Coxsackie A21 virus = test: Continuous Oral Feeding test in mice challenged IP with Coxsackie A21 virus; details: 0.06% by weight in diet; 10 days; >3.84 active (95% confidence level)
[4] = test system: rhinovirus type 39 (RV-39); test: Tissue culture testing, reduction of viral cytopathic effect, RV-39; type: cell-based; details: Enterovirus, read-out: Lowest concentration of the compound necessary to cause a 50 percent reduction in cytopathic effect, RV-39
[5] = test system: polio virus type 2 (Polio-2); test: organism not typed; type: cell-based; details: HeLa, read-out: Lowest concentration of the compound necessary to cause a 50 percent reduction in cytopathic effect, Polio-2
[6] = HeLa cells, RV-1A, 48 and 72 hours
[7] = HeLa cells, RV-2, 48 and 72 hours
[8] = HeLa cells, RV-64, 48 and 72 hours
[9] = HeLa cells, RV-39, 48 and 72 hours

SMILES | EC50 [1] [µg/mL] | MCC (in vitro) [µg/mL] | EC50 [2, 6] [µg/mL] | EC50 (rhinovirus type 2 (RV-2); [7]) [µg/mL] | EC50 [3, 8] [µg/mL] | Continuous Oral Feeding X^2 (chi-square, mortality) (Coxsackie A21 virus) | EC50 ([2]; HeLa) [µg/mL] | EC50 [4, 9] [µg/mL] | EC50 [5] [µg/mL] | EC50 (rhinovirus type 2 (RV-2); HeLa) [µg/mL] | EC50 ([4]; HeLa) [µg/mL] | EC50 ([3]; HeLa) [µg/mL]
CCSc1ncc(Oc2ccc(Cl)c(Cl)c2)cc1C#N [Example 27, 5-(3,4-Dichlorophenoxy)-2-ethylthio-3-pyridinecarbonitrile] | < 3.13 | > 50 | – | – | – | – | – | – | – | – | – | –
CSc1cc(C#N)c(Oc2ccc(Cl)c(Cl)c2)cn1 [Example 24, 5-(3,4-Dichlorophenoxy)-2-methylthio-4-pyridinecarbonitrile] | 1.25 (≈ 4.02 µM) | > 50 | > 50 | > 50 | > 50 | – | – | – | – | – | – | –
C[S+]([O-])c1ccc(Oc2ccc(Cl)c(Cl)c2)nc1C#N (stereo not drawn) [Example 29, 6-(3,4-Dichlorophenoxy)-3-methylsulfinyl-2-pyridinecarbonitrile] | 12.5 (≈ 38.2 µM) | > 50 | 12.5 (≈ 38.2 µM) | 12.5 (≈ 38.2 µM) | – | – | – | – | – | – | – | –
CC(C)Sc1ccc(Oc2ccc(Cl)c(Cl)c2)c(C#N)n1 [Example 37, 3-(3,4-Dichlorophenoxy)-6-isopropylthio-2-pyridinecarbonitrile] | < 1.56 | ≥ 25 | 3.13 (≈ 9.23 µM) | < 1.56 | ≤ 1.56 | – | – | – | – | – | – | –
CCSc1cnc(Oc2ccc(Cl)c(Cl)c2)cc1C#N [Example 22, 2-(3,4-Dichlorophenoxy)-5-ethylthio-4-pyridinecarbonitrile] | 0.63 (≈ 1.94 µM) | 50 | > 50 | 2.5 (≈ 7.69 µM) | – | – | – | – | – | – | – | –
CCSc1cc(C#N)c(Oc2ccc(Cl)c(Cl)c2)cn1 [Example 23, 5-(3,4-Dichlorophenoxy)-2-ethylthio-4-pyridinecarbonitrile] | 2.5 (≈ 7.69 µM) | 50 | > 50 | 2.5 (≈ 7.69 µM) | – | – | – | – | – | – | – | –
CCS(=O)(=O)c1ccc(Oc2ccc(Cl)c(Cl)c2)nc1C#N [Example 33, 6-(3,4-Dichlorophenoxy)-3-ethylsulfonyl-2-pyridinecarbonitrile] | < 3.1 | 50 | – | < 3.1 | – | – | – | – | – | – | – | –
CCCCSc1ccc(Oc2ccc(Cl)c(Cl)c2)c(C#N)n1 [Example 39, 3-(3,4-Dichlorophenoxy)-6-(n-butylthio)-2-pyridinecarbonitrile] | 1.56 (≈ 4.42 µM) | ≥ 25 | > 25 | 3.13 (≈ 8.86 µM) | 12.5 (≈ 35.4 µM) | – | – | – | – | – | – | –
CCSc1ccc(Oc2ccc(C(=O)c3ccccc3)cc2)nc1C#N [Example 26, 6-(4-Benzoylphenoxy)-3-ethylthio-2-pyridinecarbonitrile] | < 3.1 | 50 | 25 (≈ 69.4 µM) | < 3.1 | – | 27.5 | – | – | – | – | – | –
CSc1ccc(Oc2ccc(Cl)c(Cl)c2)nc1C#N [Example 25, 6-(3,4-Dichlorophenoxy)-3-methylthio-2-pyridinecarbonitrile] | < 3.1 | > 50 | 25 (≈ 80.3 µM) | – | – | – | – | – | – | – | – | –
C[S+]([O-])c1ccc(Oc2ccc(Cl)c(Cl)c2)nc1C(N)=O (stereo not drawn) [Example 30, 6-(3,4-Dichlorophenoxy)-3-methylsulfinyl-2-pyridinecarboxamide] | < 3.1 | 25 | 6.3 (≈ 18.2 µM) | 6.3 (≈ 18.2 µM) | – | – | – | – | – | – | – | –
CCCSc1ccc(Oc2ccc(Cl)c(Cl)c2)nc1C#N [Example 34, 6-(3,4-Dichlorophenoxy)-3-propylthio-2-pyridinecarbonitrile] | 0.08 (≈ 0.236 µM) | > 50 | – | 3.13 (≈ 9.23 µM) | > 12.5 | – | 1.56 (≈ 4.6 µM) | 25 (≈ 73.7 µM) | 1.56 (≈ 4.6 µM) | – | – | –
CCSc1ccc(Oc2ccc(Cl)c(Cl)c2)c(C#N)n1 [Example 21, 3-(3,4-Dichlorophenoxy)-6-ethylthio-2-pyridinecarbonitrile] | 0.6 (≈ 1.84 µM) | 2.5 | 2.5 (≈ 7.69 µM) | 0.6 (≈ 1.84 µM) | 2.5 (≈ 7.69 µM) | – | – | – | – | – | – | –
CC(C)CSc1ccc(Oc2ccc(Cl)c(Cl)c2)nc1C#N [Example 42, 6-(3,4-Dichlorophenoxy)-3-(isobutylthio)-2-pyridinecarbonitrile] | < 1.56 | > 25 | 12.5 (≈ 35.4 µM) | 6.25 (≈ 17.7 µM) | 6.25 (≈ 17.7 µM) | – | – | – | – | – | – | –
CCCSc1ccc(Oc2ccc(Cl)c(Cl)c2)c(C#N)n1 [Example 35, 3-(3,4-Dichlorophenoxy)-6-propylthio-2-pyridinecarbonitrile] | < 3.13 | 50 | 0.78 (≈ 2.3 µM) | – | – | – | – | – | 12.5 (≈ 36.8 µM) | 12.5 (≈ 36.8 µM) | 12.5 (≈ 36.8 µM) | > 12.5
CC(C)Sc1ccc(Oc2ccc(Cl)c(Cl)c2)nc1C#N [Example 36, 6-(3,4-Dichlorophenoxy)-3-isopropylthio-2-pyridinecarbonitrile] | < 1.56 | 12.5 | ≤ 1.56 | ≤ 1.56 | 3.13 (≈ 9.23 µM) | – | – | 1.56 (≈ 4.6 µM) | – | – | – | –
CCSc1ccc(Oc2ccc(Cl)c(Cl)c2)nc1C#N [Example 20, 6-(3,4-Dichlorophenoxy)-3-ethylthio-2-pyridinecarbonitrile] | 0.03 (≈ 0.0922 µM) | > 12.5 | 3.13 (≈ 9.62 µM) | 3.13 (≈ 9.62 µM) | 12.5 (≈ 38.4 µM) | 6.5 | – | 6.25 (≈ 19.2 µM) | < 0.78 | – | – | –
CC(C)CSc1ccc(Oc2ccc(Cl)c(Cl)c2)c(C#N)n1 [Example 43, 3-(3,4-Dichlorophenoxy)-6-(isobutylthio)-2-pyridinecarbonitrile] | 1.56 (≈ 4.42 µM) | ≥ 25 | 12.5 (≈ 35.4 µM) | ≤ 1.56 | 3.13 (≈ 8.86 µM) | – | – | – | – | – | – | –
CCC(C)Sc1ccc(Oc2ccc(Cl)c(Cl)c2)nc1C#N (stereo not drawn) [Example 40, 6-(3,4-Dichlorophenoxy)-3-(sec-butylthio)-2-pyridinecarbonitrile] | 0.16 (≈ 0.453 µM) | > 25 | 1.56 (≈ 4.42 µM) | 1.25 (≈ 3.54 µM) | 1.56 (≈ 4.42 µM) | – | – | 10 (≈ 28.3 µM) | – | – | – | –
CCSc1cnc(Oc2ccc(Cl)c(Cl)c2)c(C#N)c1 [Example 28, 2-(3,4-Dichlorophenoxy)-5-ethylthio-3-pyridinecarbonitrile] | 1.25 (≈ 3.84 µM) | > 50 | > 50 | > 50 | > 50 | – | – | – | – | – | – | –
CS(=O)(=O)c1ccc(Oc2ccc(Cl)c(Cl)c2)nc1C#N [Example 32, 6-(3,4-Dichlorophenoxy)-3-methylsulfonyl-2-pyridinecarbonitrile] | > 50 | > 12.5 | 6.25 (≈ 18.2 µM) | 6.25 (≈ 18.2 µM) | 3.13 (≈ 9.12 µM) | 10.1 | – | – | > 12.5 | – | > 12.5 | –
CCC(C)Sc1ccc(Oc2ccc(Cl)c(Cl)c2)c(C#N)n1 (stereo not drawn) [Example 41, 3-(3,4-Dichlorophenoxy)-6-(sec-butylthio)-2-pyridinecarbonitrile] | ≤ 1.56 | > 25 | 6.25 (≈ 17.7 µM) | < 1.56 | < 1.56 | – | – | – | – | – | – | –
CC[S+]([O-])c1ccc(Oc2ccc(Cl)c(Cl)c2)nc1C#N (stereo not drawn) [Example 31, 6-(3,4-Dichlorophenoxy)-3-ethylsulfinyl-2-pyridinecarbonitrile] | < 3.1 | 50 | 12.5 (≈ 36.6 µM) | 12.5 (≈ 36.6 µM) | – | – | – | – | – | – | – | –
CCCCSc1ccc(Oc2ccc(Cl)c(Cl)c2)nc1C#N [Example 38, 6-(3,4-Dichlorophenoxy)-3-(n-butylthio)-2-pyridinecarbonitrile] | < 1.56 | > 25 | 12.5 (≈ 35.4 µM) | 6.25 (≈ 17.7 µM) | 12.5 (≈ 35.4 µM) | – | – | – | – | – | – | –
